Tests used:
Alternaria brassicae = experiment: In vivo test on Alternaria brassicae (leaf spot of crucifers); conditions: at 330 ppm; comparison compounds of WO 01/11965
Protocol: The active ingredient tested is prepared by potter homogenisation in a concentrated suspension type formulation at 100 g/l. This suspension is then diluted with water to obtain the desired active material concentration.
Radish plants (Pernot variety) in starter cups, sown on a 50/50 peat soil-pozzolana substrate and grown at 18-20° C., are treated at the cotyledon stage by spraying with the aqueous suspension described above.
Plants, used as controls, are treated with an aqueous solution not containing the active material.
After 24 hours, the plants are contaminated by spraying them with an aqueous suspension of Alternaria brassicae spores (40,000 spores per cm^3). The spores are collected from a 12-13-day-old culture.
The contaminated radish plants are incubated for 6-7 days at about 18° C., under a humid atmosphere.
Grading is carried out 6 to 7 days after the contamination, in comparison with the control plants.

Botrytis cinerea = experiment: Effectiveness on Botrytis cinerea; type: in vivo; conditions: at 330 ppm; comparison compounds of WO 01/11965
Peronospora parasitica = experiment: Efficacy against Peronospora parasitica; type: in vivo; conditions: at 330 ppm; comparison compound of WO 01/11965

SMILES | melting point [°C] | effectiveness on Alternaria brassicae (Alternaria brassicae) | effectiveness on Botrytis cinerea (Botrytis cinerea) | efficacy against Peronospora parasitica (Peronospora parasitica)
O=C(NCC(C(=O)O)c1nc(F)c(Cl)cc1F)c1sccc1I (stereo not shown) [Compound A-3] | 192 |  |  | 
O=C(Cc1cccs1)NCc1ncc(C(F)(F)F)cc1Cl [compound 101, N-{[3-chloro-5-(trifluoromethyl)-2-pyridinyl]methyl}-5-thienylacetamide] |  | poor efficacy | no efficacy | no efficacy
CCNC(=O)C(Cc1ncc(C(F)(F)F)cc1Cl)NC(=O)c1ccccc1 (stereo not shown) [compound 304, N-{1-ethylcarbamoyl-2-[3-chloro-5-(trifluoromethyl)-2-pyridinyl]-ethyl}-benzamide] |  |  | zero effectiveness | 
CCNC(=O)C(Cc1ncc(C(F)(F)F)cc1Cl)NC(=O)c1ccc(Cl)cc1 (stereo not shown) [compound 306, N-{1-ethylcarbamoyl-2-[3-chloro-5-(trifluoromethyl)-2-pyridinyl]-ethyl}-4-chlorobenzamide] |  |  | zero effectiveness | 
CCNC(=O)C(Cc1ncc(C(F)(F)F)cc1Cl)NC(=O)c1cccc([N+](=O)[O-])c1 (stereo not shown) [compound 307, N-{1-ethylcarbamoyl-2-[3-chloro-5-(trifluoromethyl)-2-pyridinyl]ethyl}-3-nitrobenzamide] |  | poor effectiveness | zero effectiveness | 
CCNC(=O)C(Cc1ncc(C(F)(F)F)cc1Cl)NC(=O)c1ccccc1Br (stereo not shown) [compound 310, N-{1-ethylcarbamoyl-2-[3-chloro-5-(trifluoromethyl)-2-pyridinyl]ethyl}-2-bromobenzamide] |  |  | zero effectiveness | 
CNC(=O)C(Cc1ncc(C(F)(F)F)cc1Cl)NC(=O)c1ccccc1 (stereo not shown) [compound 314, N-{1-methylcarbamoyl-2-[3-chloro-5-(trifluoromethyl)-2-pyridinyl]ethyl}-benzamide] |  |  | zero effectiveness | 
CNC(=O)C(Cc1ncc(C(F)(F)F)cc1Cl)NC(=O)c1ccc(OC)cc1 (stereo not shown) [compound 315, N-{1-methylcarbamoyl-2-[3-chloro-5-(trifluoromethyl)-2-pyridinyl]ethyl}-4-methoxybenzamide] |  |  | zero effectiveness | 
CNC(=O)C(Cc1ncc(C(F)(F)F)cc1Cl)NC(=O)c1ccc(-c2ccccc2)cc1 (stereo not shown) [compound 316, N-{1-methylcarbamoyl-2-[3-chloro-5-(trifluoromethyl)-2-pyridinyl]-ethyl}-4-phenylbenzamide] |  | poor effectiveness | zero effectiveness | 
